Experimental data as given in patent US4859773A, “Preparation of 1,8-bridged 4-quinoline-3-carboxylic acids” (Bayer Aktiengesellschaft, priority 1985, dated 1989).
≈ marks a conversion by molar mass, not a printed value.

Assays:
Test in all cases: MIC, agar dilution test (Isosensitest medium), Denley multipoint inoculator
Type in all cases: cell-based
[1] = system: E. coli Neumann; conditions: Escherichia coli
Source text: (§1) Agar dilution test (Isosensitest medium)
(§2) Denley multipoint inoculator

[2] = system: E. coli A 261; conditions: Escherichia coli, A261
Source text: as §1, §2

[3] = system: E. coli T 7; conditions: Escherichia coli, T7
Source text: as §1, §2

[4] = system: Klebsiella 8085
Source text: as §1, §2

Cc1c(F)cc2c(=O)c(C(=O)O)cn3c2c1OCC3 [Example 61]
MIC [1]: 0.125 µg/mL (≈ 0.475 µM)
MIC [2]: 0.5 µg/mL (≈ 1.9 µM)
MIC [3]: 0.5 µg/mL (≈ 1.9 µM)
MIC [4]: 0.125 µg/mL (≈ 0.475 µM)
